According to patent US20210386761A1, “COMPOSITION FOR PREVENTING OR TREATING INFLAMMATORY BOWEL DISEASE, CONTAINING, AS ACTIVE INGREDIENT, TAURODEOXYCHOLIC ACID OR PHARMACEUTICALLY ACCEPTABLE SALT THEREOF” (SHAPERON INC., priority 2019, published 2021):

Experiments:
[1] = tested on: inflammatory bowel disease-induced mouse model (DSS); assay: Clinical symptom analysis (body weight, DAI, survival) in 2% DSS inflammatory bowel disease-induced mouse model; assay type: in vivo
Protocol: An inflammatory bowel disease-induced mouse model using dextran sodium sulfate (DSS) was prepared by the following method.
Specifically, male C57BL/6 mice (7 to 12 weeks old, body weight of 18 to 30 g) were adapted for one week and used in the experiment. Animal rearing was carried out under the conditions of a temperature of 25° C. and a day and night cycle (12 hours night/12 hours daytime), and feed and drinking water were freely fed. All the animals were managed according to the guidelines for use of experimental animals of Seoul National University IACUC (IACUC: SNU-151223-4-1). On the day of administration of DSS (MP Biomedicals, Santa Ana, Calif., USA) (Day 0), mice were weighed and marked on the tail.
Next, male C57BL/6 mice were fed with a 2% DSS solution together with drinking water from Day 0 of the experiment to induce inflammatory bowel disease. DPBS or 10, 5, 2.5, or 1 mg/kg sodium taurodeoxycholic acid (TDCA) was administered in 0.1 ml by oral gavage one time a day from Day 1 of the experiment. Alternatively, 0.1 ml of 5 mg/kg TDCA was administered one time a day by oral gavage 2 days before DSS administration.
The 2% DSS solution was used after being prepared by dissolving DSS powder in sterilized distilled water and filtering the solution. The TDCA was dissolved in DPBS (Dulbecco's phosphate-buffered saline) and used.
(§1) The disease activity indexes (DAI) including body weight, body weight loss, stool consistency, and bloody stool were measured daily. DAI was scored according to the following [Table 1].
(§2) Specifically, female C57BL/6 mice were fed with a 2% DSS solution or DPBS together with drinking water for 10 days from Day 0 of the experiment by the same method as that described in <Example 1>, DPBS or 5 mg/kg TDCA was administered to the mice by oral gavage one time a day for 11 days from Day 1 of the experiment, and the body weight and DAI were measured daily. As a control, mice freely fed with drinking water were used.
as §2, with “or 10, 5, 2.5, or 1” for “or 5”
as §2, with “solution” for “solution or DPBS”, “7” for “10”, “gavage” for “gavage one time a day for 11 days”, “DSS administration or 2 days before DSS administration,” for “the experiment,”
as §2, with “Specifically, C57BL/6-Gpbar1^tm1(KOMP)Vlcg mice (TGR5 KO, KOMP Repository, The Knockout Mouse Project, University of California, Davis, Calif.) were used as TGR5 knockout (TGR5^−/−) female C57BL/6 mice. The TGR5^−/− female C57BL/6 mice or TGR5 normal (WT)” for “Specifically,”, “1>.” for “1>,”

[2] = tested on: TGR5 knockout (TGR5−/−) inflammatory bowel disease-induced mouse model; assay: Clinical symptom analysis in DSS-induced TGR5 knock-out (TGR5−/−) mouse model; assay type: in vivo; settings: TGR5−/− mice, 2% DSS 10 days
Protocol: as §1
as §2, with “Specifically, C57BL/6-Gpbar1^tm1(KOMP)Vlcg mice (TGR5 KO, KOMP Repository, The Knockout Mouse Project, University of California, Davis, Calif.) were used as TGR5 knockout (TGR5^−/−) female C57BL/6 mice. The TGR5^−/− female C57BL/6 mice or TGR5 normal (WT)” for “Specifically,”, “1>.” for “1>,”

In the case of `C[C@H](CCC(=O)NCCS(=O)(=O)O)[C@H]1CC[C@H]2[C@@H]3CC[C@@H]4C[C@H](O)CC[C@]4(C)[C@H]3C[C@H](O)[C@]12C` [TDCA, sodium taurodeoxycholic acid], the “initial body weight lost on Day 10” value ([1]; 2% DSS 10 days, 5 mg/kg TDCA oral gavage one time a day for 11 days from Day 1, DSS+DPBS group about 15%, FIG. 1A) is reported as “about 5%”, the survival rate ([1]; 2% DSS 10 days, 5 mg/kg TDCA oral gavage one time a day, DSS+DPBS group 60%, FIG. 1C) is reported as 100% and the “start of body weight loss later than the DSS+DPBS group” value ([1]; 2% DSS 10 days, 5 mg/kg TDCA oral gavage one time a day, FIG. 1A) is reported as “about 2 days”. For the same compound, the “DAI (disease activity index) change” value ([1]; 2% DSS 10 days, 5 mg/kg TDCA oral gavage one time a day, FIG. 1B) was “lower than that in the DSS+DPBS group”, the DAI change ([1]; 2% DSS 10 days, 10, 5, 2.5, or 1 mg/kg TDCA, FIG. 4B) was “lower than that in the DSS+DPBS group” and the “degree of alleviation of body weight loss” value ([1]; 2% DSS 10 days, TDCA at 5 and 10 mg/kg, among 10, 5, 2.5, 1 mg/kg, FIG. 4A) was “superior”. For the same compound, the DAI change ([1]; 2% DSS 10 days, TDCA at 10, 5, and 2.5 mg/kg, among 10, 5, 2.5, 1 mg/kg, FIG. 4B) was “DAI was lower”, the DAI change ([1]; DSS+TDCA group: 5 mg/kg TDCA from Day 1 of DSS administration, 2% DSS 7 days, FIG. 6B) was “similarly decreased” and the DAI change ([1]; DSS+preTDCA group: 5 mg/kg TDCA from 2 days before DSS administration, 2% DSS 7 days, FIG. 6B) was “similarly decreased”. The “initial body weight lost on Day 10” value ([1]; TGR5 normal (WT) mice, 2% DSS 10 days, 5 mg/kg TDCA oral gavage one time a day, FIG. 8A) was “about 5%”, the DAI change ([1]; TGR5 normal (WT) mice, 2% DSS 10 days, 5 mg/kg TDCA, FIG. 8B) was “lower than those in the other groups” and the survival rate ([1]; TGR5 normal (WT) mice, 2% DSS 10 days, 5 mg/kg TDCA, FIG. 8C) was 100%. For the same compound, the “initial body weight lost on Day 10” value ([2]; 5 mg/kg TDCA oral gavage one time a day, FIG. 8A) was “about 27%”, the DAI change ([2]; 5 mg/kg TDCA, FIG. 8B) was “DAI was high” and the survival rate ([2]; 5 mg/kg TDCA, FIG. 8C) was 60%.
